Each molecule was assayed on monocytic THP1 cells infected with HIV VSV-G pseudotyped GFP-NEF reporter virus (assay: cells). Details: Human immunodeficiency virus 1, THP-1, 24 h.
Format: cell-based
`Cc1cc(/C=C/C#N)cc(C)c1Oc1nc(NC23CC(C#N)(C2)C3)nc2nc(C(F)F)n(C(F)F)c12` [Compound 178, (E)-3-((6-(4-(2-cyanovinyl)-2,6-dimethylphenoxy)-7,8-bis(difluoromethyl)-7H-purin-2-yl)amino)bicyclo[1.1.1]pentane-1-carbonitrile] was tested, and the EC50 was 0.0257 µM. `Cc1cc(/C=C/C#N)cc(C)c1Oc1nc(NC23CC(C#N)(C2)C3)nc2nc(C(C)O)n(C(F)F)c12` (centres unmarked) [Compound 179, (E)-3-((6-(4-(2-cyanovinyl)-2,6-dimethylphenoxy)-7-(difluoromethyl)-8-(1-hydroxyethyl)-7H-purin-2-yl)amino)bicyclo[1.1.1]pentane-1-carbonitrile] gave an EC50 of 0.0181 µM. `Cc1cc(/C=C/C#N)cc(C)c1Oc1nc(NC23CC(C#N)(C2)C3)nc2c1[C@@H](C)N(C1CC1)C2=O` [Compound 180, (R,E)-3-((4-(4-(2-cyanovinyl)-2,6-dimethylphenoxy)-6-cyclopropyl-5-methyl-7-oxo-6,7-dihydro-5H-pyrrolo[3,4-d]pyrimidin-2-yl)amino)bicyclo[1.1.1]pentane-1-carbonitrile] was tested, and the EC50 was 0.0929 µM. For `Cc1cc(/C=C/C#N)cc(C)c1Oc1nc(NC23CC(C#N)(C2)C3)nc2c1[C@H](C)N(C1CC1)C2=O` [Compound 181, (S,E)-3-((4-(4-(2-cyanovinyl)-2,6-dimethylphenoxy)-6-cyclopropyl-5-methyl-7-oxo-6,7-dihydro-5H-pyrrolo[3,4-d]pyrimidin-2-yl)amino)bicyclo[1.1.1]pentane-1-carbonitrile], the EC50 was 0.0205 µM. For `Cc1cc(/C=C/C#N)cc(C)c1Oc1nc(NC23CC(C#N)(C2)C3)nc2nc3n(c12)CCO3` [Compound 184, (E)-3-((4-(4-(2-cyanovinyl)-2,6-dimethylphenoxy)-6,7-dihydrooxazolo[2,3-f]purin-2-yl)amino)bicyclo[1.1.1]pentane-1-carbonitrile], the EC50 was 0.0365 µM. `Cc1cc(/C=C/C#N)cc(C)c1Oc1nc(NC23CC(C#N)(C2)C3)nc2nc3n(c12)C[C@H](C)CO3` [Compound 185, (S,E)-3-((4-(4-(2-cyanovinyl)-2,6-dimethylphenoxy)-7-methyl-7,8-dihydro-6H-[1,3]oxazino[2,3-f]purin-2-yl)amino)bicyclo[1.1.1]pentane-1-carbonitrile] was tested, and the EC50 was 0.0223 µM. For `Cc1cc(/C=C/C#N)cc(C)c1Oc1nc(NC23CC(C#N)(C2)C3)nc2nc3n(c12)C[C@@H](C)CO3` [Compound 186, (R,E)-3-((4-(4-(2-cyanovinyl)-2,6-dimethylphenoxy)-7-methyl-7,8-dihydro-6H-[1,3]oxazino[2,3-f]purin-2-yl)amino)bicyclo[1.1.1]pentane-1-carbonitrile], the EC50 was 0.092 µM. With `Cc1cc(/C=C/C#N)cc(C)c1Oc1nc(NC23CC(C#N)(C2)C3)nc2nc3n(c12)CC1(CC1)CO3` [Compound 187, (E)-3-((4′-(4-(2-cyanovinyl)-2,6-dimethylphenoxy)-6′H,8′H-spiro[cyclopropane-1,7′-[1,3]oxazino[2,3-f]purin]-2′-yl)amino)bicyclo[1.1.1]pentane-1-carbonitrile] the EC50 was 0.0365 µM. Molecule `Cc1cc(/C=C/C#N)cc(C)c1Oc1nc(NC23CC(C#N)(C2)C3(F)F)nc2nc3n(c12)CCCO3` [Compound 188, (E)-3-((4-(4-(2-cyanovinyl)-2,6-dimethylphenoxy)-7,8-dihydro-6H-[1,3]oxazino[2,3-f]purin-2-yl)amino)-2,2-difluorobicyclo[1.1.1]pentane-1-carbonitrile] has an EC50 of 0.0704 µM. Molecule `Cc1cc(/C=C/C#N)cc(C)c1Oc1nc(NC23CC(C#N)(C2)C3)nc2nc3n(c12)CC(F)(F)CO3` [Compound 189, (E)-3-((4-(4-(2-cyanovinyl)-2,6-dimethylphenoxy)-7,7-difluoro-7,8-dihydro-6H-[1,3]oxazino[2,3-f]purin-2-yl)amino)bicyclo[1.1.1]pentane-1-carbonitrile] has an EC50 of 0.109 µM. `Cc1cc(/C=C/C#N)cc(C)c1Oc1nc(NC23CC(C#N)(C2)C3)nc2[nH]c(=O)n(C(F)F)c12` [Compound 190, (E)-3-((6-(4-(2-cyanovinyl)-2,6-dimethylphenoxy)-7-(difluoromethyl)-8-oxo-8,9-dihydro-7H-purin-2-yl)amino)bicyclo[1.1.1]pentane-1-carbonitrile] was tested, and the EC50 was 0.329 µM. With `Cc1cc(/C=C/C#N)cc(C)c1Oc1nc(NC23CC(C#N)(C2)C3)nc2nc3n(c12)CCOC3` [Compound 195, (E)-3-((4-(4-(2-cyanovinyl)-2,6-dimethylphenoxy)-6,7-dihydro-9H-[1,4]oxazino[3,4-f]purin-2-yl)amino)bicyclo[1.1.1]pentane-1-carbonitrile] the EC50 was 0.037 µM. `Cc1cc(/C=C/C#N)cc(C)c1Oc1nc(NC23CC(C#N)(C2)C3)nc2nc3n(c12)CCC3` [Compound 196, (E)-3-((4-(4-(2-cyanovinyl)-2,6-dimethylphenoxy)-7,8-dihydro-6H-pyrrolo[2,1-f]purin-2-yl)amino)bicyclo[1.1.1]pentane-1-carbonitrile] was tested, and the EC50 was 0.0246 µM. `Cc1cc(/C=C/C#N)cc(C)c1Oc1nc(NC23CC(C#N)(C2)C3)nc2c1C1(C)OCC(C)(C)CN1C2=O` (centres unmarked) [Compound 197, (E)-3-((4-(4-(2-cyanovinyl)-2,6-dimethylphenoxy)-4b,7,7-trimethyl-10-oxo-4b,7,8,10-tetrahydro-6H-pyrimido[5′,4′:3,4]pyrrolo[2,1-b][1,3]oxazin-2-yl)amino)bicyclo[1.1.1]pentane-1-carbonitrile] showed an EC50 of 0.0973 µM. `Cc1cc(/C=C/C#N)cc(C)c1Oc1nc(NC23CC(C#N)(C2)C3)nc2c1C1(C)O[C@@H](CO)CN1C2=O` (stereo partly drawn) [Compound 264, 3-(((6R)-4-(4-((E)-2-cyanovinyl)-2,6-dimethylphenoxy)-6-(hydroxymethyl)-4b-methyl-9-oxo-4b,6,7,9-tetrahydrooxazolo[3′,2′:1,5]pyrrolo[3,4-d]pyrimidin-2-yl)amino)bicyclo[1.1.1]pentane-1-carbonitrile] was tested, and the EC50 was 0.118 µM. `Cc1cc(/C=C/C#N)cc(C)c1Oc1nc(NC23CC(C#N)(C2)C3)nc2c1C(O)(CF)NC2=O` (centres unmarked) [Compound 265, (E)-3-((4-(4-(2-cyanovinyl)-2,6-dimethylphenoxy)-5-(fluoromethyl)-5-hydroxy-7-oxo-6,7-dihydro-5H-pyrrolo[3,4-d]pyrimidin-2-yl)amino)bicyclo[1.1.1]pentane-1-carbonitrile] was tested, and the EC50 was 0.0864 µM. Molecule `Cc1cc(/C=C/C#N)cc(C)c1Oc1nc(NC23CC(C#N)(C2)C3)nc2c1/C(=C/F)NC2=O` [Compound 266, 3-(((Z)-4-(4-((E)-2-cyanovinyl)-2,6-dimethylphenoxy)-5-(fluoromethylene)-7-oxo-6,7-dihydro-5H-pyrrolo[3,4-d]pyrimidin-2-yl)amino)bicyclo[1.1.1]pentane-1-carbonitrile] has an EC50 of 0.061 µM. `Cc1cc(/C=C/C#N)cc(C)c1Oc1nc(NC23CC(C#N)(C2)C3)nc2c1C(O)(CF)N(C1CC1)C2=O` (centres unmarked) [Compound 267, (E)-3-((4-(4-(2-cyanovinyl)-2,6-dimethylphenoxy)-6-cyclopropyl-5-(fluoromethyl)-5-hydroxy-7-oxo-6,7-dihydro-5H-pyrrolo[3,4-d]pyrimidin-2-yl)amino)bicyclo[1.1.1]pentane-1-carbonitrile] showed an EC50 of 0.0803 µM. Work on `Cc1cc(/C=C/C#N)cc(C)c1Oc1nc(NC23CC(C#N)(C2)C3)nc2c1/C(=C/F)N(C1CC1)C2=O` [Compound 268, 3-(((Z)-4-(4-((E)-2-cyanovinyl)-2,6-dimethylphenoxy)-6-cyclopropyl-5-(fluoromethylene)-7-oxo-6,7-dihydro-5H-pyrrolo[3,4-d]pyrimidin-2-yl)amino)bicyclo[1.1.1]pentane-1-carbonitrile] yielded an EC50 of 0.173 µM. With `C=C1c2c(Oc3c(C)cc(/C=C/C#N)cc3C)nc(NC34CC(C#N)(C3)C4)nc2C(=O)N1[C@H]1CC[C@@H](O)C1` [Compound 269, 3-((4-(4-((E)-2-cyanovinyl)-2,6-dimethylphenoxy)-6-((1S,3R)-3-hydroxycyclopentyl)-5-methylene-7-oxo-6,7-dihydro-5H-pyrrolo[3,4-d]pyrimidin-2-yl)amino)bicyclo[1.1.1]pentane-1-carbonitrile] the EC50 was 0.0573 µM. Molecule `C=C1c2c(Oc3c(C)cc(/C=C/C#N)cc3C)nc(NC34CC(C#N)(C3)C4)nc2C(=O)N1CCCCO` [Compound 270, (E)-3-((4-(4-(2-cyanovinyl)-2,6-dimethylphenoxy)-6-(4-hydroxybutyl)-5-methylene-7-oxo-6,7-dihydro-5H-pyrrolo[3,4-d]pyrimidin-2-yl)amino)bicyclo[1.1.1]pentane-1-carbonitrile] has an EC50 of 0.019 µM. `Cc1cc(/C=C/C#N)cc(C)c1Oc1nc(NC23CC(C#N)(C2)C3)nc2c1C1(C)OCC[C@H](C)N1C2=O` (stereo partly drawn) [Compound 271, 3-(((8S)-4-(4-((E)-2-cyanovinyl)-2,6-dimethylphenoxy)-4b,8-dimethyl-10-oxo-4b,7,8,10-tetrahydro-6H-pyrimido[5′,4′:3,4]pyrrolo[2,1-b][1,3]oxazin-2-yl)amino)bicyclo[11.1.1]pentane-1-carbonitrile] gave an EC50 of 0.052 µM. Work on `Cc1cc(/C=C/C#N)cc(C)c1Oc1nc(NC23CC(C#N)(C2)C3)nc2c1C1(C)OCC[C@@H](C)N1C2=O` (stereo partly drawn) [Compound 272, 3-(((8R)-4-(4-((E)-2-cyanovinyl)-2,6-dimethylphenoxy)-4b,8-dimethyl-10-oxo-4b,7,8,10-tetrahydro-6H-pyrimido[5′,4′:3,4]pyrrolo[2,1-b][1,3]oxazin-2-yl)amino)bicyclo[1.1.1]pentane-1-carbonitrile] yielded an EC50 of 0.0683 µM. In the case of `Cc1cc(/C=C/C#N)cc(C)c1Oc1nc(NC23CC(C#N)(C2)C3)nc2c1C1(C)OCCN1C2=O` (centres unmarked) [Compound 273, (E)-3-((4-(4-(2-cyanovinyl)-2,6-dimethylphenoxy)-4b-methyl-9-oxo-4b,6,7,9-tetrahydrooxazolo[3′,2′:1,5]pyrrolo[3,4-d]pyrimidin-2-yl)amino)bicyclo[1.1.1]pentane-1-carbonitrile], the EC50 is reported as 0.016 µM. With `Cc1cc(/C=C/C#N)cc(C)c1Oc1nc(NC23CC(C#N)(C2)C3)nc2c1nc1n2CC2(CC2)CO1` [Compound 274, (E)-3-((4′-(4-(2-cyanovinyl)-2,6-dimethylphenoxy)-7′H,9′H-spiro[cyclopropane-1,8′-[1,3]oxazino[3,2-e]purin]-2′-yl)amino)bicyclo[1.1.1]pentane-1-carbonitrile] the EC50 was 0.111 µM. Work on `Cc1cc(/C=C/C#N)cc(C)c1C(=O)c1nc(NC23CC(C#N)(C2)C3)nc2nn(C)cc12` [Compound 275, (E)-3-((4-(4-(2-cyanovinyl)-2,6-dimethylbenzoyl)-2-methyl-2H-pyrazolo[3,4-d]pyrimidin-6-yl)amino)bicyclo[1.1.1]pentane-1-carbonitrile] yielded an EC50 of 0.113 µM.

Reference: US20250333424A1, “ANTIVIRAL COMPOUNDS” (Gilead Sciences, Inc., priority 2024, published 2025)
